In US20260083687A1, “COMPOUNDS FOR REDUCING LACTATION AND IMPROVING HEALTH” (AHV International B.V., priority 2022, published 2026):

Experiments:
cows = test: Administering of DPD at abrupt dry off and occurrence of mastitis / new intramammary infections, milk leakage, SCC (Example 10); type: in vivo, cow
Procedure: Study design. Cow description. 59 cows from 5 different farms were used for this study. The cows were randomly divided into 3 groups: • Control group; • DPD Treatment group 1: DC Liquid (500 mL) group (composition with 80 ml pure dipropyl disulfide); and • DPD Treatment group 2: DPD enriched onion Extract (OE) bolus (150 mL) group (corresponding to 80 ml pure dipropyl disulfide).
The control group consisted of 24 cows with an average milk production prior to dry off of 17.23 liters. […] The average lactation of the control group was 2.1 and they had on average a dry period of 48 days (10 animals in 1st lactation, 4 in 2nd lactation, 6 in 3th lactation and 4 in 4th lactation). 50% of all cows in the control group were observed leaking milk regardless of milk production prior to dry off, and the incidence goes up to 63% if the cows with production below or equal to 12.5 liters prior to dry off or discarded.
The DC Liquid treatment group consisted of 18 cows with an average mp prior to dry off of 21.61 liters (1 cow with a mp lower than 12.5 liters, lowest 11.40 liters and highest 32 liters). The average lactation of the DC Liquid group was 1.9 with 11 cows in 1st lactation, 2 cows in 2nd, 3 cows in 3th, and 2 cows in 5th lactation. The average dry period of this group was 49 days.
The DPD enriched OE bolus treatment group consisted of 17 cows with an average mp prior to dry off of 20.6 liters (lowest 13.8 and high 32 liters) and an average lactation of 2.2 (6 cows in 1 s lactation, 4 cows in 2nd, 4 cows in 3th, and 3 cows in 4th lactation). 1 cow dropped out during the dry period because of non-related lameness issues. The dry period of this group was on average 46 days.
After the last milking the cows received the dry off protocol according to the farms protocols. The DPD treatment groups received a DPD treatment in the form of a bolus dose by bolus shooter in the rumen. Both treatment groups consisted of treatment with 80 ml DPD. In all cases abrupt dry-off was applied, with no restriction in number of milking nor change of feed prior to dry-off. Before moving to the dry pen all cows underwent hoof trimming. During the dry period and after calving the cows were monitored for signs of mastitis. Before the cows were 30 days in lactation a SCC was determined to evaluate the dry period.
Intramammary infections (IMI) were defined as signs of a clinical mastitis (ao. Flocks, watery milk, coloring of milk) cases during the dry period and in the first 30 days in lactation or a rise in individual somatic cell count (ISCC) from before to after the dry period (threshold: 200,000 cells/mL) or both.

[1] = test system: cows (Holstein Friesians); test: Treatment with DPD analogs (organosulfur compounds) and milk yield (Example 8); type: in vivo, cow; details: individual cows; dose per compound as listed in E284
Procedure: Study design. 36 cows (Holstein Friesians) from 2 farms were used. The feed of the cows was composed of TMR, including corn and grass silage, supplemented with soya and minerals. […] The cows were milked in a milk robot. […] The cows were milked twice a day. The cows were housed in free stables. […] Placebo treatment corresponded to administration of two gel capsules containing 180 ml water.
For this study dosages synthetic compounds (>96% purity) as indicated in table 17 were administered to cows. The objective of this study was to compare the activity of a corresponding dose of the compounds expressed in mol, based on the number of moles that is present in 80 ml di-n-propyl disulfide at 20° C. The number of moles was converted to ml or grams of the tested compounds. For this purpose, the molecular weight and specific density were used in the calculations. The compounds were formulated in the gel capsules as indicated in the previous examples.
Before the various dosages were administered, the milk yields were monitored for at least 5 days.

CCCSSCCC [DPD, di-n-propyl disulfide]
outcome of animals that entered the dry period diagnosed with an IMI (cows; 3 animals (2 DC Liquid, 1 DPD enriched OE)): all 3 recovered at the start of the new lactation
animals diagnosed with a new IMI after calving (cows; 80 ml DPD at abrupt dry off): 21%
cases with a decrease of SCC after calving (cows; 80 ml DPD at abrupt dry off): 61%
incidence of milk leakage (cows; 80 ml DPD at abrupt dry off, DPD treatment groups 1 and 2 combined): 17%
reduction of risk of new IMI (cows; DPD treated groups combined vs control group): 42%
reduction of incidence of milk leakage (cows; DPD treatment groups combined vs control group): 73%
cows with signs of mastitis (flocks in milk) (cows; after calving, DPD treatment group): 1 cow
cows with signs of clinical mastitis (cows; during the dry period, DPD treatment group): 1 cow
Milk yield (kg) After 24 h [1]: 8.5 kg
Milk yield (kg) After 48 h [1]: 7.4 kg
Milk yield (kg) After 72 h [1]: 15.6 kg
Milk yield (kg) After 96 h [1]: 17.7 kg
